Legend:
[1] = system: rat heart mitochondria; experiment: Chemiluminescent NO analysis of total S-nitrosothiol in treated mitochondria; format: biochemical
Method: At concentrations above 250 μM, secondary reactions such as free S-nitrosothiol or NO2^− formation were observed.
Rat heart mitochondria were isolated using differential centrifugation (Tompkins, et al. (2005) Biochim. Biophys. Acta PMID: 16278076). Protein was determined by the Folin-phenol method (Lowry, et al. (1951) J. Bio. Chem. 193:265-75) against a standard curve constructed using bovine serum albumin. Mitochondrial incubations and all subsequent steps were performed in the dark. One mg of mitochondrial protein was suspended in 1 mL of mitochondrial respiration buffer (Tompkins, et al. (2005) supra) containing respiratory substrates glutamate (5 mM), malate (2.5 mM) and succinate (5 mM). […] Samples were centrifuged (5 minutes, 14,000×g), and supernatants removed. The pellets were then resuspended in 1 mL of respiration buffer, and centrifuged again. Pellets were frozen in liquid N2 for subsequent analysis. For ONOO^− treatments, 4 μL of 25 mM ONOO^− stock (100 μM final concentration) was added the cap of the reaction tube, the cap quickly closed and the tube shaken immediately. The process was then repeated twice at 30 second intervals, for a total of 3 additions. Mitochondria were then pelleted, washed, and frozen as for S-nitrosoglutathione samples. Complex I activity was assayed as the rotenone-sensitive oxidation of NADH, at 340 nm in the presence of coenzyme Q1 (Borutaite, et al. (2000) supra). Complex IV was assayed by monitoring the cyanide-sensitive first-order oxidation of reduced cytochrome c, at 550 nm according to established methods (Cleeter, et al. (1994) supra).
(§1) Chemiluminescent analysis of S-nitrosothiol content was performed on samples originating from blue-native gels, intact mitochondria and SUPEROSE™ 6 chromatography fractions, according to known methodologies (Yang, et al. (2003) Free Radic. Res. 37:1-10). […] Each sample was run in duplicate and quantified using a standard curve created with known concentrations of NaNO2.

[2] = target: T1, mitochondrial complex I (Rattus norvegicus, UniProt Q66HF1); experiment: Complex I S-nitrosation: blue-native gel isolation followed by chemiluminescent S-nitrosothiol analysis; format: biochemical; settings: 100 μM treatment
T1 construct: Rat heart mitochondria were isolated using differential centrifugation; from tissue; host or cells: rat heart mitochondria (male Sprague-Dawley rats)
T1 sequence (Q66HF1 24-727, one chain of several): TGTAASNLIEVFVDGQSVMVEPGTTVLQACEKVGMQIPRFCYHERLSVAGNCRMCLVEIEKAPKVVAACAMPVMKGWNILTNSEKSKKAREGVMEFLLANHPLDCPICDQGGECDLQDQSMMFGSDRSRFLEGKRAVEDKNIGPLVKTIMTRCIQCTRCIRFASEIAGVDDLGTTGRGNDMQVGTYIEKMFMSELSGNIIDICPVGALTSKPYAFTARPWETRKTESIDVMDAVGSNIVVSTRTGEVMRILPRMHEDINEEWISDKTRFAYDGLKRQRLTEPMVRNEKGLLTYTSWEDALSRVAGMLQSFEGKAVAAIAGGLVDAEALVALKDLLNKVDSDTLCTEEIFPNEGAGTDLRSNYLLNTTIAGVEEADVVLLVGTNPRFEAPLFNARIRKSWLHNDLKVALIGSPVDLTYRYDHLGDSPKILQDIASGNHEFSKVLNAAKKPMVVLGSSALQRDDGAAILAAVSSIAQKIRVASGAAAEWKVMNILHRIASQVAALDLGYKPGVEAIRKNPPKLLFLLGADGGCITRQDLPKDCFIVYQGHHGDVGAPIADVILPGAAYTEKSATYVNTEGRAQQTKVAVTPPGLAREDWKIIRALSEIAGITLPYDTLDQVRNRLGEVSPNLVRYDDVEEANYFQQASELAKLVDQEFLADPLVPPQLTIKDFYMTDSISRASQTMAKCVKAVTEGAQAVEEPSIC
Excerpt: Efforts to detect S-nitrosation within mitochondrial complex I itself relied on isolating the complex using a modified blue-native gel electrophoresis method, followed by chemiluminescent S-nitrosothiol analysis. […] Chemiluminescent analysis of excised gel bands gave an S-nitrosothiol profile of the gel, with four major peaks. The first of these was in a gel segment enriched in complex I.
Assuming heart mitochondria contain ˜50 pmol complex I per mg protein (Schagger & Pfeiffer (2001) J. Biol. Chem. 276:37861-37867), it was observed that S-nitrosation plateaud at a ˜7:1 mol/mol ratio (i.e., 7 mols S-nitrosothiol per mol complex I), while maximum complex I inhibition was ˜20-25%. This apparent mis-match between the stoichiometry of S-nitrosation (7:1) and the degree of inhibition (25%) may reflect S-nitrosation of complex I on multiple subunits. […]
as §1

Which “concentration above which secondary reactions (free S-nitrosothiol or NO2- formation) were observed” value [1] does the source give for N[C@@H](CCC(=O)N[C@@H](CSN=O)C(=O)NCC(=O)O)C(=O)O [S-nitrosoglutathione] here?
The value was “above 250 μM”.

And the “total S-nitrosothiol” value ([1]; 100 μM treatment)?
The value was ~1700 pmol/mg mitochondrial protein.

What about the “concentration approaching saturation of total S-nitrosothiol (free plus protein-bound)” value ([1]; range 10 μM to 1 mM) of the same compound?
The value was ~300 µM.

And the “share of total S-nitrosothiol originating from complex I” value [2]?
Its value is ~20%.

And the “S-nitrosothiol originating from complex I” value ([2]; per mg mitochondrial protein)?
The value was 350 pmols.
